DBAASP
≈ marks a conversion by molar mass, not a printed value. Blank lines part the entries; values can stand above or below the molecule they belong to.

Legend:
Test in all cases: ≥ marks a high value that may be exact or a test limit, other limits are often not marked, values filed in µg/mL are converted to µM
[1] = system: Enterobacter cloacae 6266
[2] = system: Pseudomonas aeruginosa 5106
[3] = system: Salmonella typhimurium
[4] = system: Pseudomonas aeruginosa 4677
[5] = system: Escherichia coli 170
[6] = system: Pseudomonas aeruginosa 3599
[7] = system: Acinetobacter baumannii
[8] = system: Klebsiella pneumoniae 913
[9] = system: Klebsiella pneumoniae 68228
[10] = system: Escherichia coli 5580
[11] = system: Klebsiella pneumoniae 1625
[12] = system: Enterobacter cloacae 2524
[13] = system: Streptococcus pneumoniae ATCC 49619
[14] = system: Escherichia coli ATCC 25922
[15] = system: Bacillus subtilis PCI 219
[16] = system: Escherichia coli NIHJ JC-2
[17] = system: Pseudomonas aeruginosa U-31
[18] = system: Staphylococcus aureus FDA 209P
[19] = system: Escherichia coli CGMCC 1.1580
[20] = system: Micrococcus luteus CGMCC 1.193
[21] = system: Lactiplantibacillus plantarum CGMCC 1.551
[22] = system: Staphylococcus aureus CGMCC 1.2386
[23] = system: Staphylococcus aureus ATCC 6538P
[24] = system: Lactococcus lactis ATCC 15577
[25] = system: Shigella flexneri CGMCC 1.1868
[26] = system: Pseudomonas aeruginosa CGMCC 1.647
[27] = system: Staphylococcus aureus CGMCC 1.879
[28] = system: Pseudomonas putida CGMCC 1.645
[29] = system: Staphylococcus aureus CGMCC 1.128
[30] = system: Salmonella sp. CGMCC 1.1552
[31] = system: Lactiplantibacillus plantarum CGMCC 1.511
[32] = system: Bacillus subtilis CGMCC 1.1627
[33] = system: Enterococcus faecalis CGMCC 1.125
[34] = system: Escherichia coli JM109
[35] = system: Lactiplantibacillus plantarum CGMCC 1.556
[36] = system: Lactiplantibacillus plantarum CGMCC 1.124
[37] = system: Shigella dysenteriae ATCC 9753
[38] = system: Lactiplantibacillus plantarum CGMCC 1.11
[39] = system: Listeria monocytogenes ATCC 7648
[40] = system: Enterobacter cloacae 6780
[41] = system: Carnobacterium mobile
[42] = system: Fusarium oxysporum

SMILES: CC[C@H](C)[C@H](NC(=O)[C@H](CC(C)C)NC(=O)[C@H](Cc1ccccc1)NC(=O)[C@H](CCC(N)=O)NC(=O)[C@H](CCC(N)=O)NC(=O)[C@H](CCCCN)NC(=O)[C@@H](NC(=O)[C@@H](N)CCCCN)[C@@H](C)O)C(=O)N[C@@H](CCCCN)C(=O)N[C@@H](C)C(=O)N[C@@H](CCC(N)=O)C(=O)N[C@H](C(=O)N[C@@H](CCC(N)=O)C(=O)N[C@@H](CC(C)C)C(=O)N[C@@H](Cc1ccccc1)C(=O)N[C@@H](CCCCN)C(=O)N[C@H](C(=O)N[C@@H](Cc1ccccc1)C(=O)NCC(=O)N[C@@H](Cc1ccc(O)cc1)C(=O)N[C@H](C(=O)N[C@@H](CC(C)C)C(=O)O)[C@@H](C)O)C(C)C)[C@@H](C)O [KTKQQFLIKAQTQLFKVFGYTL]
MIC [19]: 0.235 µM (≈ 0.618 µg/mL)
MIC [20]: 0.153 µM (≈ 0.403 µg/mL)
MIC [21]: 0.722 µM (≈ 1.9 µg/mL)
MIC [22]: 0.21 µM (≈ 0.553 µg/mL)
MIC [23]: 0.178 µM (≈ 0.468 µg/mL)
MIC [24]: 1.23 µM (≈ 3.22 µg/mL)
MIC [25]: 0.135 µM (≈ 0.355 µg/mL)
MIC [26]: 0.144 µM (≈ 0.379 µg/mL)
MIC [27]: 0.132 µM (≈ 0.347 µg/mL)
MIC [28]: 0.075 µM (≈ 0.197 µg/mL)
MIC [29]: 0.218 µM (≈ 0.574 µg/mL)
MIC [30]: 0.136 µM (≈ 0.358 µg/mL)
MIC [31]: 1.35 µM (≈ 3.56 µg/mL)
MIC [32]: 0.121 µM (≈ 0.318 µg/mL)
MIC [33]: 0.146 µM (≈ 0.384 µg/mL)
MIC [34]: 0.135 µM (≈ 0.355 µg/mL)
MIC [35]: 0.682 µM (≈ 1.79 µg/mL)
MIC [36]: 0.242 µM (≈ 0.637 µg/mL)
MIC [37]: 0.185 µM (≈ 0.487 µg/mL)
MIC [38]: 0.885 µM (≈ 2.33 µg/mL)
MIC [39]: 0.112 µM (≈ 0.295 µg/mL)

SMILES: CC(C)C[C@H](NC(=O)[C@H](CCCCN)NC(=O)[C@H](CCC(N)=O)NC(=O)[C@@H](NC(=O)[C@@H](NC(=O)[C@H](CC(N)=O)NC(=O)[C@H](C)NC(=O)[C@@H](NC(=O)[C@@H](N)CCCCN)C(C)C)[C@@H](C)O)C(C)C)C(=O)N[C@@H](CCCCN)C(=O)N[C@@H](CCCN=C(N)N)C(=O)N[C@@H](CCCCN)C(=O)N[C@@H](C)C(=O)N[C@@H](CCCCN)C(=O)N[C@@H](CC(N)=O)C(=O)N[C@@H](C)C(=O)N[C@H](C(=O)O)C(C)C [KVANTVQKLKRKAKNAV]
MIC [40]: ≥ 50 µM
MIC [4]: ≥ 50 µM
MIC [5]: ≥ 50 µM
MIC [7]: ≥ 50 µM
MIC [8]: ≥ 50 µM
MIC [12]: 25 µM (≈ 47.4 µg/mL)
MIC [14]: > 50 µM

Next, values leading:

MIC [1]: 3.1 µM (≈ 9.55 µg/mL)
MIC [2]: 12 µM (≈ 37 µg/mL)
MIC [3]: 3.15 µM (≈ 9.7 µg/mL)
MIC [4]: 25 µM (≈ 77 µg/mL)
MIC [5]: 3.1 µM (≈ 9.55 µg/mL)
MIC [6]: ≥ 50 µM
MIC [7]: 3.1 µM (≈ 9.55 µg/mL)
MIC [8]: 3.1 µM (≈ 9.55 µg/mL)
MIC [9]: 6.2 µM (≈ 19.1 µg/mL)
MIC [10]: 1.6 µM (≈ 4.93 µg/mL)
MIC [11]: 1.6 µM (≈ 4.93 µg/mL)
MIC [12]: 6.2 µM (≈ 19.1 µg/mL)
MIC [13]: 25 µM (≈ 77 µg/mL)
MIC [14]: 1.6 µM (≈ 4.93 µg/mL)
SMILES: CC[C@H](C)[C@H](NC(=O)CN)C(=O)N[C@@H](CC(C)C)C(=O)N[C@@H](CCCCN)C(=O)N[C@H](C(=O)N[C@H](C(=O)N[C@@H](CCCCN)C(=O)N[C@@H](CO)C(=O)N[C@H](C(=O)N[C@@H](C)C(=O)N[C@@H](CO)C(=O)N[C@@H](CCCCN)C(=O)N[C@H](C(=O)N[C@@H](C)C(=O)N[C@@H](CC(N)=O)C(=O)N[C@H](C(=O)N[C@H](C(=O)N[C@@H](CCC(N)=O)C(=O)N[C@@H](CCCCN)C(=O)N[C@@H](CC(C)C)C(=O)N[C@@H](CCCCN)C(=O)N[C@@H](CCCN=C(N)N)C(=O)N[C@@H](CCCCN)C(=O)N[C@@H](C)C(=O)N[C@@H](CCCCN)C(=O)N[C@@H](CC(N)=O)C(=O)N[C@@H](C)C(=O)N[C@H](C(=O)N[C@@H](C)C(=O)O)C(C)C)C(C)C)[C@@H](C)O)C(C)C)[C@@H](C)CC)[C@@H](C)CC)[C@@H](C)O [GILKTIKSIASKVANTVQKLKRKAKNAVA]

MIC [15]: ≥ 43.6 µM
MIC [16]: ≥ 43.6 µM
MIC [17]: ≥ 43.6 µM
MIC [18]: ≥ 43.6 µM
SMILES: CC(C)C[C@H](NC(=O)[C@H](CCCCN)NC(=O)[C@H](CCCCN)NC(=O)[C@H](CC(C)C)NC(=O)[C@H](CC(C)C)NC(=O)[C@H](CCCCN)NC(=O)[C@H](CCCCN)NC(=O)[C@H](Cc1c[nH]c2ccccc12)NC(=O)[C@H](CCCCN)NC(=O)[C@H](CCCCN)NC(=O)[C@H](CC(C)C)NC(=O)[C@H](CC(C)C)NC(=O)[C@H](CCCCN)NC(=O)[C@H](CCCCN)NC(=O)[C@H](CC(C)C)NC(=O)[C@H](CCCCN)NC(=O)[C@@H](N)CCCCN)C(=O)N[C@@H](CCCCN)C(=O)O [KKLKKLLKKWKKLLKKLK]

MIC [41]: 0.0025 µM (≈ 0.00538 µg/mL)
MIC [42]: 0.1 µM (≈ 0.215 µg/mL)
SMILES: CSCC[C@H](N)C(=O)N[C@@H](C)C(=O)N[C@@H](CO)C(=O)N[C@@H](CCCN=C(N)N)C(=O)N[C@@H](C)C(=O)N[C@@H](C)C(=O)N[C@@H](CCCN=C(N)N)C(=O)N[C@@H](CC(C)C)C(=O)N[C@@H](C)C(=O)N[C@@H](C)C(=O)N[C@@H](CCCN=C(N)N)C(=O)N[C@@H](CC(C)C)C(=O)N[C@@H](C)C(=O)N[C@@H](CCCN=C(N)N)C(=O)N[C@@H](CC(C)C)C(=O)N[C@@H](C)C(=O)N[C@@H](CC(C)C)C(=O)N[C@@H](CCCN=C(N)N)C(=O)N[C@@H](C)C(=O)N[C@@H](CC(C)C)C(=O)O [MASRAARLAARLARLALRAL]
